Earlier results as cited in patent US20240033215A1 (AMOS PHARM, priority 2022, published 2024).
Converted amounts (≈) assume the structure as drawn. Read-outs that look alike come from different tables or passages of the source.

solubility (at acidic pH): 0.078 mg/mL (≈ 0.378 mM)
solubility (at alkaline pH): 291 mg/mL (≈ 1410 mM)
SMILES: CC(C)Cc1ccc([C@H](C)C(=O)O)cc1 [Dexibuprofen]
